Assay results reported in US20250312320A1, “METHOD AND TREATMENT FOR OSTEOARTHRITIS AND DISEASES OF CHONDROCYTE HYPERTROPHY” (The Royal Veterinary College, priority 2022, published 2025).
Entries after “also recorded” stand apart in the source; their conditions may differ.

What was measured:
[1] = test system: monolayer culture of ATDC5 cells; experiment: Monolayer culture of ATDC5 cells, GAG deposition; assay type: cell-based, mouse; details: monolayer instead of micromass
ATDC5 micromass = experiment: Dose response of CDK8 inhibitors on ATDC5 micromass (alizarin red / alcian blue); assay type: cell-based, mouse; details: all concentrations (10 μM down to 0.1 nM), day 14
Procedure: (§1) In brief, 2 μl micromasses were seeded in a 96-well plate and cultured as previous in the presence of BI1347 and additional CDK8i compounds namely BRD6989, AS2863619, SEL120-34A, MSC2530818 and CCT251545. Compound concentrations were titrated 10-fold from 10 μM down to 0.1 nM. On day 14 micromasses were fixed, stained and subsequently leached to allow for dose response analysis to be conducted.
as §1, with “seeded on” for “seeded in”, “additional Mediator kinase inhibitor” for “additional CDK8i”

[2] = test system: MC3T3 (subclone 14) osteoblast-like cells; experiment: MC3T3 osteoblast-like cell mineralisation (alizarin red); assay type: cell-based
Procedure: 2×10^4 MC3T3 (subclone 14) osteoblast-like cells were seeded on a 24-well plate and cultured for 2 days in osteoblast growth media (Alpha-MEM supplemented with 10% FBS, 1% Ab/Am) before induction of differentiation with osteoblast differentiation media (Alpha-MEM, 10% FBS, 1% Ab/Am, 50 μg/ml ascorbic acid, 5 mM β-glycerophosphate) in the presence of 1 μM BI1347 or DMSO, with media changes every 2-3 days.
Another MC3T3 differentiation method was also carried out with MSC2530818 treatment. Briefly, MC3T3 cells were seeded as above and differentiated for 7 days in osteogenic induction media (Alpha-MEM, 10% FBS, 1% Ab/Am, 50 μg/ml ascorbic acid) with DMSO or 100 nM MSC2530818, before switching to osteogenic induction media with 2 mM β-glycerophosphate in the presence of 100 nM MSC2530818 or DMSO.
Cells were fixed in 95% ice-cold methanol and stained with 1% Alizarin Red on day 7, 10 and 14 of culture for BI1347 and on day 14 only for MSC2530818 treated cells to observe effects of compounds on mineralization compared to DMSO control. Alizarin red stain was leached and measured as previously described.

ATDC5 micromasses [3] = experiment: Dose response of CDK8i on genes of interest in hypertrophic ATDC5 micromasses; assay type: cell-based, mouse; details: for gene expression of OA protective genes (TIMP4, MATN3, SMOC2, CNMD) / gene expression of hypertrophic/mineralised matrix marker IBSP: 1 μM, 100 nM or 10 nM, 14 day hypertrophic differentiation, vs DMSO; for dose response in gene expression: efficacy down to: 14 days differentiation to hypertrophy
Procedure: To confirm that the gene expression profile observed in the day 7 RNAseq dataset was reproducible in hypertrophic cells, we selected genes of interest from the RNAseq dataset and analysed gene expression analysis on hypertrophic ATDC5 cells. 2.7×10^5 ATDC5 cells were cultured in 10 μl micromasses in the presence of BI1347 and MSC2530818 at concentrations 1 μM, 100 nM, 10 nM and DMSO control for 7 days in differentiation media before switching to mineralisation media for 7 days. On day 14 cells were processed for qPCR analysis as previously described.

ATDC5 micromasses [4] = experiment: Phased dosing of CDK8i on ATDC5 micromasses (alcian blue / alizarin red); assay type: cell-based, mouse; details: 1 μM, phased dosing 2, 4, 6, 9, 11, 14 days, read day 14; all timepoints
Procedure: To understand the longevity of the CDK8i effect observed with BI1347 and MSC2530818, ATDC5 micromasses were exposed to a phased dosing regimen. This consisted of treating standard 10 μl ATDC5 micromasses with differentiation media containing 1 μM of BI1347 or MSC2530818 for 2 days before switching to control differentiation media for the remaining culture period ending on day 14 of differentiation. This was repeated for 4, 6, 9, 11 and 14 days of treatment. On day 14, cells were fixed and stained with alizarin red or alcian blue as previously described.

[5] = test system: STR/Ort mouse (spontaneous osteoarthritis); experiment: STR/Ort mouse pilot study: cartilage manifestations and gene expression markers; assay type: in vivo; details: 5 mg/kg oral gavage intermittently, 2 weeks
Procedure: The STR/Ort mouse is a spontaneous mouse model of osteoarthritis which follows a similar trajectory as primary osteoarthritis disease development as humans and companion animals. […] An initial pilot study consisting of 2 male STR/Ort mice aged 18 weeks per group was carried out. Mice were dosed 5 mg/kg […] (N=2) or DMSO (N=2) in 60% PEG400 via oral gavage 3 times a week intermittently for 2 weeks. On day 14, mice were sacrificed, and articular cartilage was harvested from the knee joint using a micro rongeur. Tissue was homogenised in Qiazol using 2.4 mm beads in pre-chilled Tissue Lyser II racks (Qiagen) at 30 Hz for 5 minutes in total with intervals for samples to be chilled on ice every 60 seconds to prevent sample heating. Homogenised samples were directly processed for RNA extraction using the Direct-Zol microprep kit (Zymo) and RNA was processed for gene expression analysis via qPCR as previous.

| SMILES | changes in GAG deposition [1] | alcian blue staining (GAG deposition) (ATDC5 micromass) | mineralisation by alizarin red stain vs DMSO ([2]; 1 μM, over 14 days culture) | gene expression of OA protective genes (TIMP4, MATN3, SMOC2, CNMD) (ATDC5 micromasses [3]) | gene expression of hypertrophic/mineralised matrix marker IBSP (ATDC5 micromasses [3]) | dose response in gene expression: efficacy down to (ATDC5 micromasses [3]) [nM] | Glycosaminoglycan (GAG) deposition (leached alcian blue absorbances) vs DMSO (ATDC5 micromasses [4]) | Mineralization (leached alizarin red absorbances) vs DMSO (ATDC5 micromasses [4]) | mineralisation by alizarin red stain vs DMSO ([2]; 100 nM, 14 days (AA day 0-7, AA + 2 mM BGP day 7-14)) | mineralisation by alizarin red stain vs DMSO ([2]; 100 nM, 14 days (AA day 0-7, AA + 2 mM BGP day 7-14), listed as MSC) | gene expression of cartilage anabolic biomarkers ([5]; N=2, not powered for significance) | articular cartilage thickness (appearance post-dissection) ([5]; N=2, vs DMSO) | infiltration of blood vessels in articular cartilage ([5]; male aged 18 weeks, N=2, vs DMSO) |
| --- | --- | --- | --- | --- | --- | --- | --- | --- | --- | --- | --- | --- | --- |
| CN(C)C(=O)Cn1cc(-c2ccc(-c3cncc4ccccc34)cc2)cn1 [BI1347] | not seen | maintained | completely inhibited mineralisation; also recorded: reduced mineralisation | dose dependent increase | dose dependent decrease | 10 | increase in GAG deposition | decrease in mineralisation |  |  |  |  |  |
| Cc1n[nH]c2ncc(C(=O)N3CCC[C@H]3c3ccc(Cl)cc3)cc12 [MSC2530818] | not seen | maintained |  | dose dependent increase | dose dependent decrease | 10 | increase in GAG deposition | decrease in mineralisation | mineralisation was ablated | ablation of mineralization | increased; also recorded: increase in expression | appears thicker | absent; also recorded: not present |
